These compounds were tested against T1, PLK4 (Homo sapiens, UniProt O00444) (assay: PLK4 NanoBRET target engagement assay). Conditions: HEK293 T cells transfected with PLK4 NanoLuc fusion vector; K-5 tracer; 2 hrs incubation.
T1 construct: expressed in transfected cells; host or cells: HEK293 T cells (ATCC CRL-3216)
T1 sequence (O00444 1-970): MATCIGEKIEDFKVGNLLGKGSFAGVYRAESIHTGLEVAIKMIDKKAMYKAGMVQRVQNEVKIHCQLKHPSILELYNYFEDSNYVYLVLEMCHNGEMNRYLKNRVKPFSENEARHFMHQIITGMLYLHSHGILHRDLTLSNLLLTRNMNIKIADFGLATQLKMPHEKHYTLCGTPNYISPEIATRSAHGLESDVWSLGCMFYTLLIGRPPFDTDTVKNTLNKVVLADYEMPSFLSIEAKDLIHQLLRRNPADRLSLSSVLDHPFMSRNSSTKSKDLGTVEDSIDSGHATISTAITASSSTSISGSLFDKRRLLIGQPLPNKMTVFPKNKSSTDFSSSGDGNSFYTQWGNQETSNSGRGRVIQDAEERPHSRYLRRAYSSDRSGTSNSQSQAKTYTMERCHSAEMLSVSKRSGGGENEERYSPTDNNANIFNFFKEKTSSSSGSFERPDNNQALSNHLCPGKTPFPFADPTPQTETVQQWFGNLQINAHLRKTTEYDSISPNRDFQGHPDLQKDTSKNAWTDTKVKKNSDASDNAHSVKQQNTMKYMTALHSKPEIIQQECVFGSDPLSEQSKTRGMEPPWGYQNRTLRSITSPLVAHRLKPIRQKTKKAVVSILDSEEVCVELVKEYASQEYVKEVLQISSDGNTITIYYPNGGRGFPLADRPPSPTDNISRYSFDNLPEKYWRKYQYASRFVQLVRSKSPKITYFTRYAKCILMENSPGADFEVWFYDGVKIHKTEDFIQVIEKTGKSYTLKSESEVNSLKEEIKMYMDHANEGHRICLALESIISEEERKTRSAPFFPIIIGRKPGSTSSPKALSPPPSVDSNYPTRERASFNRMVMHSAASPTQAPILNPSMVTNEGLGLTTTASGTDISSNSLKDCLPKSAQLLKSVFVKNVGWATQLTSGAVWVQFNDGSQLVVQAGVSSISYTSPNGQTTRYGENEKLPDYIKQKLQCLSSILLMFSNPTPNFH
Format: binding
In short: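 HEK293T cells transiently expressing PLK4-NanoLuc, plated at 17000 cells/well with K-5 tracer and compound, incubated 2 h at 37 °C/5% CO2. After substrate/inhibitor mix, 610/450 nm emission ratio ×1000 gave mBRET; IC50 from 4-parameter fit.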
`Cc1cc(Nc2nc(N(C)c3c(F)cc(S(C)(=O)=O)cc3F)nc(-c3cnc4n3CCOC4)c2C2CC2)n[nH]1` [Compound 302] gave an IC50 of 8 nM.
`Cc1cc(Nc2nc(N(C)c3c(F)cc(S(C)(=O)=O)cc3F)nc(-c3cnn(C)c3N3CCCC3=O)c2C2CC2)n[nH]1` [Compound 304] showed an IC50 of 8 nM.
In the case of `Cc1cc(Nc2nc(N(C)c3c(F)cc(S(C)(=O)=O)cc3F)nc(-c3cnn(C)c3C(O)C(F)(F)F)c2C2CC2)n[nH]1` (stereo not shown) [Compound 305], the IC50 is reported as 16 nM.
Work on `Cc1cc(Nc2nc(N(C)c3c(F)cc(S(C)(=O)=O)cc3F)nc(-c3cnn(C)c3C(O)(O)C(F)(F)F)c2C2CC2)n[nH]1` [Compound 306] yielded an IC50 of 94 nM.
Work on `CC(=O)c1c(-c2nc(N(C)c3c(F)cc(S(C)(=O)=O)cc3F)nc(Nc3cc(C)[nH]n3)c2C2CC2)cnn1C` [Compound 307] yielded an IC50 of 19 nM.
For `Cc1cc(Nc2nc(N(C)c3c(F)cc(S(C)(=O)=O)cc3F)nc(-c3cnn(C)c3CC#N)c2C2CC2)n[nH]1` [Compound 308], the IC50 was 2 nM.
Compound `Cc1cc(Nc2nc(N(C)c3c(F)cc(S(C)(=O)=O)cc3F)nc(-c3cnc4ccc(F)cn34)c2C2CC2)n[nH]1` [Compound 310] has an IC50 of 31 nM.
Compound `COC(C)(C)c1c(-c2nc(N(C)c3c(F)cc(S(C)(=O)=O)cc3F)nc(Nc3cc(C)[nH]n3)c2C2CC2)cnn1C` [Compound 311] has an IC50 of 14 nM.
`Cc1cc(Nc2nc(N(C)c3c(F)cc(S(C)(=O)=O)cc3F)nc(-c3cnn(C)c3C(C)O)c2C2CC2)n[nH]1` (stereo not shown) [Compound 312] showed an IC50 of 15 nM.
Work on `Cc1cc(Nc2nc(N(C)c3c(F)cc(S(C)(=O)=O)cc3F)nc(Nc3cc(C)[nH]n3)c2C2CC2)n[nH]1` [Compound 313] yielded an IC50 of 18 nM.
Compound `CN(c1nc(Nc2cc(C3CC3)[nH]n2)c(C2CC2)c(-c2cn(C)cn2)n1)c1ccc(S(C)(=O)=O)cc1F` [Compound 315] has an IC50 of 23 nM.
`Cc1cc(Nc2nc(N(C)c3c(F)cc(S(C)(=O)=O)cc3F)nc(-c3cn[nH]c3C3CC3)c2C2CC2)n[nH]1` [Compound 316] showed an IC50 of 5 nM.
`Cc1cc(Nc2nc(N(C)c3c(F)cc(S(C)(=O)=O)cc3F)nc(-c3cn[nH]c3C#N)c2C2CC2)n[nH]1` [Compound 317] showed an IC50 of 27 nM.
`Cc1cc(Nc2nc(N(C)c3c(F)cc(S(C)(=O)=O)cc3F)nc(-c3cc(C(=O)N(C)C)n(C)n3)c2C2CC2)n[nH]1` [Compound 319] was tested, and the IC50 was 5 nM.
In the case of `Cc1cc(Nc2nc(N(C)c3c(F)cc(S(C)(=O)=O)cc3F)nc(-c3cnn(C)c3N(C)C)c2C2CC2)n[nH]1` [Compound 320], the IC50 is reported as 4 nM.
`Cc1cc(Nc2nc(N(C)c3c(F)cc(S(C)(=O)=O)cc3F)nc(-c3cc(C(N)=O)n(C)n3)c2C2CC2)n[nH]1` [Compound 321] gave an IC50 of 11 nM.
`Cc1cc(Nc2nc(N(C)c3c(F)cc(S(C)(=O)=O)cc3F)nc(-c3cn(C)c(C4(O)CCC4)n3)c2C2CC2)n[nH]1` [Compound 322] showed an IC50 of 12 nM.
For `Cc1cc(Nc2nc(N(C)c3c(F)cc(S(C)(=O)=O)cc3F)nc(-c3cn(C)c(C(C)(C)O)n3)c2C2CC2)n[nH]1` [Compound 323], the IC50 was 10 nM.
`COC1CCc2nc(-c3nc(N(C)c4c(F)cc(S(C)(=O)=O)cc4F)nc(Nc4cc(C)[nH]n4)c3C3CC3)cn2C1` (stereo not shown) [Compound 324] gave an IC50 of 3 nM.
`Cc1cc(Nc2nc(N(C)c3c(F)cc(S(C)(=O)=O)cc3F)nc(Nc3ccn(C)n3)c2C2CC2)n[nH]1` [Compound 325] showed an IC50 of 52 nM.
Work on `Cc1cc(Nc2nc(N(C)c3c(F)cc(S(C)(=O)=O)cc3F)nc(-c3cnn4cccnc34)c2C2CC2)n[nH]1` [Compound 326] yielded an IC50 of 9 nM.
In the case of `Cc1cc(Nc2nc(N(C)c3c(F)cc(S(C)(=O)=O)cc3F)nc(Nc3cnccn3)c2C2CC2)n[nH]1` [Compound 328], the IC50 is reported as 51 nM.
Work on `Cc1cc(Nc2nc(N(C)c3c(F)cc(S(C)(=O)=O)cc3F)nc(-c3cn(C)nc3CC#N)c2C2CC2)n[nH]1` [Compound 329] yielded an IC50 of 4 nM.
For `Cc1cc(Nc2nc(N(C)c3c(F)cc(S(C)(=O)=O)cc3F)nc(-c3cn(CC(C)(C)O)nc3C)c2C2CC2)n[nH]1` [Compound 330], the IC50 was 9 nM.
`CN(c1nc(Nc2cc(C3CC3)[nH]n2)c(C2CC2)c(-c2ccnn2C2CC2)n1)c1c(F)cc(S(C)(=O)=O)cc1F` [Compound 331] was tested, and the IC50 was 14 nM.
With `Cc1cc(Nc2nc(N(C)c3c(F)cc(S(C)(=O)=O)cc3F)nc(N3CCC[C@@H]3C#N)c2C2CC2)n[nH]1` [Compound 332] the IC50 was 33 nM.
For `Cc1cc(Nc2nc(N(C)c3c(F)cc(S(C)(=O)=O)cc3F)nc(-c3cnn(C)c3C(=O)N(C)C3CC3)c2C2CC2)n[nH]1` [Compound 333], the IC50 was 11 nM.
In the case of `Cc1cc(Nc2nc(N(C)c3c(F)cc(S(C)(=O)=O)cc3F)nc(Nc3cnn(C)c3)c2C2CC2)n[nH]1` [Compound 334], the IC50 is reported as 37 nM.
With `Cc1cc(Nc2nc(N(C)c3c(F)cc(Br)cc3F)nc(-c3cn(C)cn3)c2C2CC2)n[nH]1` [Compound 335] the IC50 was 43 nM.
Compound `Cc1cc(Nc2nc(N(C)c3c(F)cc(S(C)(=O)=O)cc3F)nc(-c3cnn(CC(C)(C)O)c3C)c2C2CC2)n[nH]1` [Compound 336] has an IC50 of 8 nM.
`Cc1cc(Nc2nc(N(C)c3c(F)cc(Cl)cc3F)nc(-c3cn(C)cn3)c2C2CC2)n[nH]1` [Compound 337] was tested, and the IC50 was 62 nM.
Compound `COc1cc(F)c(N(C)c2nc(Nc3cc(C)[nH]n3)c(C3CC3)c(-c3cn(C)cn3)n2)c(F)c1` [Compound 338] has an IC50 of 77 nM.
For `Cc1cc(Nc2nc(N(C)c3c(F)cc(C#N)cc3F)nc(-c3cn(C)cn3)c2C2CC2)n[nH]1` [Compound 339], the IC50 was 24 nM.
For `Cc1cc(Nc2nc(N(C)c3c(F)cc(S(C)(=O)=O)cc3F)nc(-c3cc(CC#N)n(C)n3)c2C2CC2)n[nH]1` [Compound 340], the IC50 was 4 nM.
`COCc1cc(Nc2nc(N(C)c3c(F)cc(S(C)(=O)=O)cc3F)nc(-c3cnn(C)c3)c2C2CC2)n[nH]1` [Compound 341] was tested, and the IC50 was 420 nM.
In the case of `Cc1cc(Nc2nc(N(C)c3c(F)cc(S(C)(=O)=O)cc3F)nc(-c3cnn(C)c3N3CCOC3=O)c2C2CC2)n[nH]1` [Compound 342], the IC50 is reported as 4 nM.
In the case of `Cc1cc(Nc2nc(N(C)c3c(F)cc(C4CC4)cc3F)nc(-c3cn(C)cn3)c2C2CC2)n[nH]1` [Compound 343], the IC50 is reported as 26 nM.
With `Cc1cc(Nc2nc(N(C)c3ccc(S(C)(=O)=O)cc3F)nc(-c3cnn(C)c3)c2OC2CC2)n[nH]1` [Compound 344, 5-cyclopropoxy-N^2-(2-fluoro-4-(methylsulfonyl)phenyl)-N^2-methyl-N^4-(5-methyl-1H-pyrazol-3-yl)-6-(1-methyl-1H-pyrazol-4-yl)pyrimidine-2,4-diamine] the IC50 was 73 nM.
With `CC#Cc1cc(Nc2nc(N(C)c3c(F)cc(S(C)(=O)=O)cc3F)nc(-c3cnn(C)c3)c2C2CC2)n[nH]1` [Compound 345] the IC50 was 33 nM.
Work on `Cc1cc(Nc2nc(N(C)c3c(F)cc(S(C)(=O)=O)cc3F)nc(N3CCC[C@@H]3C(N)=O)c2C2CC2)n[nH]1` [Compound 346] yielded an IC50 of 12 nM.
In the case of `Cc1cc(Nc2nc(N(C)c3c(F)cc(S(=O)(=O)C4CC4)cc3F)nc(-c3cn(C)cn3)c2C2CC2)n[nH]1` [Compound 347], the IC50 is reported as 5 nM.
With `Cc1cc(Nc2nc(N(C)c3c(F)cc(-c4ccc(=O)n(C)c4)cc3F)nc(-c3cn(C)cn3)c2C2CC2)n[nH]1` [Compound 348] the IC50 was 46 nM.
With `CC(=O)N1CCC(c2cc(F)c(N(C)c3nc(Nc4cc(C)[nH]n4)c(C4CC4)c(-c4cn(C)cn4)n3)c(F)c2)CC1` [Compound 349] the IC50 was 46 nM.
In the case of `Cc1cc(Nc2nc(N(C)c3c(F)cc(C4CCOCC4)cc3F)nc(-c3cn(C)cn3)c2C2CC2)n[nH]1` [Compound 350], the IC50 is reported as 31 nM.
`Cc1cc(Nc2nc(N(C)c3c(F)cc(B(O)O)cc3F)nc(-c3cn(C)cn3)c2C2CC2)n[nH]1` [Compound 351] gave an IC50 of 52 nM.
For `Cc1cc(Nc2nc(N(C)c3c(F)cc(S(C)(=O)=O)cc3F)nc(-c3cn[nH]c3C(C)C)c2C2CC2)n[nH]1` [Compound 352], the IC50 was 3 nM.
Work on `Cc1cc(Nc2nc(N(C)c3c(F)cc(N4CCOC4=O)cc3F)nc(-c3cn(C)cn3)c2C2CC2)n[nH]1` [Compound 353] yielded an IC50 of 6 nM.
In the case of `Cc1cc(Nc2nc(N(C)c3c(F)cc(C(N)=O)cc3F)nc(-c3cn(C)cn3)c2C2CC2)n[nH]1` [Compound 354], the IC50 is reported as 17 nM.
Work on `Cc1cc(Nc2nc(N(C)c3c(F)cc(C(=O)N(C)C)cc3F)nc(-c3cn(C)cn3)c2C2CC2)n[nH]1` [Compound 355] yielded an IC50 of 190 nM.
Work on `Cc1cc(Nc2nc(N(C)c3c(F)cc(C(=O)N4CCOCC4)cc3F)nc(-c3cn(C)cn3)c2C2CC2)n[nH]1` [Compound 356] yielded an IC50 of 260 nM.
`Cc1cc(Nc2nc(N(C)c3c(F)cc(N4CCS(=O)(=O)CC4)cc3F)nc(-c3cn(C)cn3)c2C2CC2)n[nH]1` [Compound 357] showed an IC50 of 300 nM.
For `Cc1cc(Nc2nc(N(C)c3c(F)cc(C4(C(N)=O)CC4)cc3F)nc(-c3cn(C)cn3)c2C2CC2)n[nH]1` [Compound 358], the IC50 was 27 nM.

Reference: patent US20250177396A1, “POLO-LIKE KINASE 4 (PLK4) INHIBITORS, PHARMACEUTICAL COMPOSITIONS, METHODS OF PREPARATION AND USES THEREOF” (Repare Therapeutics Inc., priority 2022, published 2025)
